Source: US12077503B2, “Substituted cyclic amides and their use as herbicides” (FMC CORPORATION, priority 2015, dated 2024)
Like-named read-outs stand apart in the source and are kept apart here.

Assays:
Experiment in all cases: Test A postemergence
Type in all cases: in vivo
[1] = system: corn (Zea mays); conditions: Zea mays, post-emergence, 240 h, 125 g ai/ha; for plant injury at 125 g/ha: postemergence, visual injury rating after approximately 10 d, read-out: Corn plant response rating (0 to 100 scale, 0 no effect, 100 complete control); for Corn plant response rating (crop injury, 0 = no effect, 100 = complete kill) at 125 g/ha: Postemergence, visual injury after approximately 10 d, 0 to 100 scale where 0 is no effect and 100 is complete control
Summary of the method: (§1)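 Seeds sprayed preemergence with a directed soil spray, or plants at 2 to 10 cm height and one- to two-leaf stage sprayed postemergence, with test chemicals in a non-phytotoxic solvent mixture containing surfactant, in loam soil–sand blend. Injury rated visually against untreated controls after about 10 d in greenhouse, 0 (no effect) to 100 (complete control).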

[2] = system: pigweed (Amaranthus retroflexus); conditions: Amaranthus retroflexus, post-emergence, 240 h, 125 g ai/ha
Summary of the method: as §1

[3] = system: blackgrass (Alopecurus myosuroides); conditions: Alopecurus myosuroides, post-emergence, 240 h, 125 g ai/ha
Summary of the method: as §1

[4] = system: giant foxtail (Setaria faberii); conditions: Setaria faberi, post-emergence, 240 h, 125 g ai/ha
Summary of the method: as §1

[5] = system: barnyardgrass (Echinochloa crus-galli); conditions: Echinochloa crus-galli, post-emergence, 240 h, 125 g ai/ha
Summary of the method: as §1

[6] = postemergence, visual injury rating after approximately 10 d, read-out: Pigweed plant response rating (0 to 100 scale, 0 no effect, 100 complete control)
[7] = postemergence, visual injury rating after approximately 10 d, read-out: Blackgrass plant response rating (0 to 100 scale, 0 no effect, 100 complete control)
[8] = postemergence, visual injury rating after approximately 10 d, read-out: Foxtail, Giant plant response rating (0 to 100 scale, 0 no effect, 100 complete control)
[9] = postemergence, visual injury rating after approximately 10 d, read-out: Barnyardgrass plant response rating (0 to 100 scale, 0 no effect, 100 complete control)
[10] = Postemergence, visual injury after approximately 10 d, 0 to 100 scale where 0 is no effect and 100 is complete control, read-out: Plant response rating, Pigweed
[11] = Postemergence, visual injury after approximately 10 d, 0 to 100 scale where 0 is no effect and 100 is complete control, read-out: Plant response rating, Blackgrass
[12] = Postemergence, visual injury after approximately 10 d, 0 to 100 scale where 0 is no effect and 100 is complete control, read-out: Plant response rating, Foxtail, Giant
[13] = Postemergence, visual injury after approximately 10 d, 0 to 100 scale where 0 is no effect and 100 is complete control, read-out: Plant response rating, Barnyardgrass

SMILES: COc1c(F)ccc([C@H]2CN(C)C(=O)[C@@H]2C(=O)Nc2ccc(F)cc2F)c1Cl [Compound 894]
- plant injury at 125 g/ha [1]: 60%
- pest or weed control at 125 g/ha [2, 6]: 0%
- pest or weed control at 125 g/ha [3, 7]: 0%
- pest or weed control at 125 g/ha [4, 8]: 90%
- pest or weed control at 125 g/ha [5, 9]: 90%

SMILES: CN1C[C@H](c2cc(F)c(C(F)(F)F)c(F)c2)[C@@H](C(=O)Nc2cccc(F)c2F)C1=O [Compound 898]
- plant injury at 125 g/ha [1]: 70%
- pest or weed control at 125 g/ha [2, 6]: 40%
- pest or weed control at 125 g/ha [3, 7]: 50%
- pest or weed control at 125 g/ha [4, 8]: 80%
- pest or weed control at 125 g/ha [5, 9]: 80%

SMILES: O=C1NC[C@H](c2ccc3c(c2)CCO3)[C@H]1C(=O)Nc1ccc(F)cc1F [Compound 902]
- plant injury at 125 g/ha [1]: 0%
- pest or weed control at 125 g/ha [2, 6]: 0%
- pest or weed control at 125 g/ha [3, 7]: 0%
- pest or weed control at 125 g/ha [4, 8]: 30%
- pest or weed control at 125 g/ha [5, 9]: 60%

SMILES: CCOc1ccc([C@H]2CN(C)C(=O)[C@@H]2C(=O)Nc2ccccc2F)cc1 [Compound 903]
- plant injury at 125 g/ha [1]: 0%
- pest or weed control at 125 g/ha [2, 6]: 0%
- pest or weed control at 125 g/ha [3, 7]: 0%
- pest or weed control at 125 g/ha [4, 8]: 80%
- pest or weed control at 125 g/ha [5, 9]: 80%

SMILES: CCOc1ccc([C@H]2CNC(=O)[C@@H]2C(=O)Nc2cccc(F)c2F)cc1 [Compound 907]
- plant injury at 125 g/ha [1]: 0%
- pest or weed control at 125 g/ha [2, 6]: 0%
- pest or weed control at 125 g/ha [3, 7]: 0%
- pest or weed control at 125 g/ha [4, 8]: 60%
- pest or weed control at 125 g/ha [5, 9]: 50%

SMILES: Cc1cc(C)cc([C@H]2CNC(=O)[C@@H]2C(=O)Nc2ccccc2C(F)(F)F)c1 [Compound 909]
- plant injury at 125 g/ha [1]: 0%
- pest or weed control at 125 g/ha [2, 6]: 0%
- pest or weed control at 125 g/ha [3, 7]: 0%
- pest or weed control at 125 g/ha [4, 8]: 40%
- pest or weed control at 125 g/ha [5, 9]: 50%

SMILES: Cc1cc(C)cc([C@H]2CN(C)C(=O)[C@@H]2C(=O)Nc2ccccc2F)c1 [Compound 910]
- plant injury at 125 g/ha [1]: 70%
- pest or weed control at 125 g/ha [2, 6]: 0%
- pest or weed control at 125 g/ha [3, 7]: 50%
- pest or weed control at 125 g/ha [4, 8]: 90%
- pest or weed control at 125 g/ha [5, 9]: 90%

SMILES: Cc1cc(C)cc([C@H]2CN(C)C(=O)[C@@H]2C(=O)Nc2ccccc2C(F)(F)F)c1 [Compound 912]
- plant injury at 125 g/ha [1]: 30%
- pest or weed control at 125 g/ha [2, 6]: 0%
- pest or weed control at 125 g/ha [3, 7]: 30%
- pest or weed control at 125 g/ha [4, 8]: 90%
- pest or weed control at 125 g/ha [5, 9]: 80%

SMILES: CN1CC[C@H](c2ccc(F)cc2)[C@@H](C(=O)Nc2ccccc2F)C1=O [Compound 917]
- Corn plant response rating (crop injury, 0 = no effect, 100 = complete kill) at 125 g/ha [1]: 0%
- pest or weed control at 125 g/ha [2, 10]: 0%
- pest or weed control at 125 g/ha [3, 11]: 0%
- pest or weed control at 125 g/ha [4, 12]: 0%
- pest or weed control at 125 g/ha [5, 13]: 0%

SMILES: COc1ccc(CN2CC[C@H](c3ccc(F)cc3)[C@@H](C(=O)Nc3cccc(F)c3F)C2=O)cc1 [Compound 919]
- Corn plant response rating (crop injury, 0 = no effect, 100 = complete kill) at 125 g/ha [1]: 0%
- pest or weed control at 125 g/ha [2, 10]: 0%
- pest or weed control at 125 g/ha [3, 11]: 0%
- pest or weed control at 125 g/ha [4, 12]: 0%
- pest or weed control at 125 g/ha [5, 13]: 0%

SMILES: O=C(Nc1cccc(F)c1F)[C@H]1C(=O)N(C2CC2)CC[C@@H]1c1cccc(C(F)(F)F)c1 [Compound 925]
- Corn plant response rating (crop injury, 0 = no effect, 100 = complete kill) at 125 g/ha [1]: 0%
- pest or weed control at 125 g/ha [2, 10]: 0%
- pest or weed control at 125 g/ha [3, 11]: 0%
- pest or weed control at 125 g/ha [4, 12]: 40%
- pest or weed control at 125 g/ha [5, 13]: 40%

SMILES: Cc1cc([C@H]2CN(C)C(=O)[C@@H]2C(=O)Nc2cccc(F)c2F)ccc1Cl [Compound 929]
- Corn plant response rating (crop injury, 0 = no effect, 100 = complete kill) at 125 g/ha [1]: 40%
- pest or weed control at 125 g/ha [2, 10]: 20%
- pest or weed control at 125 g/ha [3, 11]: 40%
- pest or weed control at 125 g/ha [4, 12]: 90%
- pest or weed control at 125 g/ha [5, 13]: 90%

SMILES: Cc1cc([C@H]2CN(C)C(=O)[C@@H]2C(=O)Nc2ccc(F)c(F)c2F)ccc1Cl [Compound 931]
- Corn plant response rating (crop injury, 0 = no effect, 100 = complete kill) at 125 g/ha [1]: 70%
- pest or weed control at 125 g/ha [2, 10]: 20%
- pest or weed control at 125 g/ha [3, 11]: 20%
- pest or weed control at 125 g/ha [4, 12]: 90%
- pest or weed control at 125 g/ha [5, 13]: 80%

SMILES: Cc1cc([C@H]2CN(C)C(=O)[C@@H]2C(=O)Nc2ccccc2C(F)(F)F)ccc1Cl [Compound 932]
- Corn plant response rating (crop injury, 0 = no effect, 100 = complete kill) at 125 g/ha [1]: 20%
- pest or weed control at 125 g/ha [2, 10]: 40%
- pest or weed control at 125 g/ha [3, 11]: 40%
- pest or weed control at 125 g/ha [4, 12]: 90%
- pest or weed control at 125 g/ha [5, 13]: 90%
